# Like-named read-outs stand apart in the source and are kept apart here.
# Target: T1, SUMO-2 (Homo sapiens, UniProt P55854)
# T1 construct: gene SUMO3; recombinant, untagged as far as told, pET11, E. coli (NMR, 15N-labelled); for titrations single Cys labelled with MFM probe
# Assay: fluorescence titration of MFM-labelled protein with SUVs, global fit
# Type: binding
# [1] = SUVs POPC:POPS:PI 85:10:5, too weak to be determined, bound set by POPS, acyl chains not given, MFM-labelled protein, 25 mM Na-HEPES, 100 mM KCl, pH 7.26, room temperature
# T1 sequence (P55854 1-92): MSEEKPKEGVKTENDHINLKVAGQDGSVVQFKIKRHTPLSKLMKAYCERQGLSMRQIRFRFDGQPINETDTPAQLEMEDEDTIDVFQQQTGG
Molecule,Kd [1] [µM],other results
"CCCCCCCC/C=C\CCCCCCCC(=O)O[C@H](COC(=O)CCCCCCCCCCCCCCC)COP(=O)([O-])OCC[N+](C)(C)C [POPC, 1-palmitoyl,2-oleoyl-sn-glycero-3-phosphocholine]",–,Kd: 180 ± 42 µM
PI(3)P,–,"Kd (lipid in SUVs POPC:POPS:PI 85:10:5, per-lipid Kd from global fit, includes binding stoichiometry, acyl chains not given, MFM-labelled protein, 25 mM Na-HEPES, 100 mM KCl, pH 7.26, room temperature): ~4 µM"
"PI(3,5)P2",> 7,–
"PI(4,5)P2",> 7,–
PI(5)P,> 7,–

# Source: paper PMC4405286, “Extracellular vesicle sorting of α-Synuclein is regulated by sumoylation” (Acta Neuropathologica, 2015)
